In patent publication US20250195556A1, “COMPOSITIONS, KITS, AND METHODS TO INDUCE ACQUIRED CYTORESISTANCE USING STRESS PROTEIN INDUCERS” (FRED HUTCHINSON CANCER RESEARCH CENTER, priority 2014, published 2025):

Legend:
HO-1 = assay: Renal cortical HO-1 mRNA and protein after IV N-Mgb, SnPP or both; format: in vivo, mice
From the text: (§1) Cytoresistance-inducing reagents. […] (#Mb0360; Sigma) was used as the primary cytoresistance-inducing agent. However, because myoglobin (Mgb) has an inherent nephrotoxic potential (particularly under conditions of volume depletion and aciduria), two approaches were used to mitigate Mgb's potential adverse effects. First, the Mgb was converted into a nitrited form by the addition of equimolar amount of sodium (Na) nitrite. In this regard, nitrite is an ambidentate molecule that directly binds 1:1 to myoglobin Fe either via its oxygen or nitrogen component. Cotton et al. Advanced inorganic chemistry. Hobocken, NJ: Wiley-Interscience, 1999:1355; Silaghi-Dumitrescu et al. Nitric Oxide 2014; 42 C: 32-9. […] Rassaf et al. Circ Res 2014; 114:1601-10; Totzeck et al. Circulation 2012; 126:325-34 [J Clin Invest 1992; 89:989-95]; Totzeck et al. PLOS One 2014; 22: e105951; Hendgen-Cotta et al. Proc Natl Acad Sci USA 2008; 105:10256-61.
(§2) Thirty-two mice were divided into 4 equal groups: (1) control mice; (2) mice treated with 1 mg of N-Mgb injection (as a bolus through the tail vein); (3) mice treated with […] of SnPP (via tail vein); and (4) mice treated with combined N-Mgb 1 SnPP. After either 4 hours (n=16) or 18 hours (n=16), the mice were deeply anesthetized with pentobarbital (50 mg/kg), the abdomen was opened through a midline abdominal incision, and the kidneys were removed. To determine potential effects on extrarenal organs, a liver lobe and the heart were also removed. The tissues were iced and then extracted for protein and RNA (RNeasy Plus Mini; Qiagen, Valencia, California) and subjected to enzyme linked immunosorbent assay (ELISA) and reverse transcriptase polymerase chain reaction (RT-PCR) for HO-1, haptoglobin, and IL-10 protein and messenger RNAs (mRNAs). Zager et al. J Am Soc Nephrol 2014; 25:998-1012; Zager et al. Am J Physiol 2012; 303: F139-48. As an assessment of renal function, control mice and the 18 hour after N-Mgb+SnPP-treated mice had blood urea nitrogen (BUN) and plasma creatinine levels measured. Additionally, transverse 10% formalin fixed kidney sections ([…]) were cut and stained with hematoxylin and eosin (H&E) and periodic acid Schiff (PAS) to further assess potential injury.

haptoglobin [1] = assay: Renal cortical haptoglobin mRNA and protein after IV N-Mgb, SnPP or both; format: in vivo, mice
From the text: as §1, §2

haptoglobin [2] = assay: Liver haptoglobin mRNA and protein after IV N-Mgb, SnPP or both; format: in vivo, mice; design: Liver protein: Haptoglobin: unit not given beside the values; details: for Liver mRNA: Haptoglobin: control 0.5; for Liver protein: Haptoglobin: control 115.3
Method: as §2

IL-10 = assay: Liver IL-10 mRNA and protein after IV N-Mgb, SnPP or both; format: in vivo, mice; details: for Liver mRNA: IL-10: control 0.06; for Liver protein: IL-10: control 314
Method: as §2

haptoglobin [3] = assay: Cardiac haptoglobin mRNA and protein after IV N-Mgb, SnPP or both; format: in vivo, mice; details: for Cardiac mRNA: Haptoglobin: control 0.31; for Cardiac protein: Haptoglobin: control 15.6
Method: as §2

Male CD-1 mice = assay: Maleate model of AKI (FeS, SnPP, FeS+SnPP); format: in vivo; details: 1 mg FeS or 1 μmole SnPP IV alone 18 hrs before maleate
From the text: Methods. Male CD-1 mice (25-40 grams) Charles River, Wilmington, MA) were used for all experiments. They were housed under standard vivarium conditions with free food and water access. All experiments were approved by the Fred Hutchinson Cancer Research Center IACUC in accordance with NIH guidelines.
Effects of Fe sucrose (FeS)/tin protoporphyrin (SnPP) on AKI severity. Maleate model of AKI. When injected into rodents, maleate undergoes relatively selective proximal tubule cell uptake via organic anion transporters. Once intracellular accumulation occurs, maleate is a preferred substrate for succinyl-CoA: 3-oxoacid CoA transferase. […] Ample levels of CoA are essential for fatty acid “activation”, allowing for their subsequent metabolism through the Krebs cycle, yielding ATP. In the absence of this process, proximal tubule ATP depletion and cell injury result. Additionally, maleate conjugates the sulfhydryl group of glutathione (GSH), culminating in GSH depletion and potential oxidant tubular stress.
The following experiment tested whether FeS, SnPP or combined FeS+SnPP can mitigate this form of acute kidney injury (AKI). […] The severity of kidney injury was assessed by determining plasma blood urea nitrogen (BUN) and plasma creatinine (PCr) concentrations.

[4] = Berglund et al. Hepatology 1988; cited from earlier work
[5] = system: cultured proximal tubule (HK-2) cells; details: Zager & Burkhart, Kidney Int 1997; cited from earlier work

C=Cc1c2[n-]c(c1C)/C=c1\[n-]/c(c(C)c1C=C)=C\c1[n-]c(c(CCC(=O)O)c1C)/C=c1\[n-]c(c(C)c1CCC(=O)O)=C2.[Sn+4] [SnPP, tin protoporphyrin, reference compound]
Kidney mRNA: HO-1 (HO-1; 4 h after Rx, control 0.61): 4.38 ± 0.28 | Kidney HO-1 protein (HO-1; 4 h after Rx, control 13.3): 22.9 ± 2.6 | Kidney mRNA cortex: HO-1 (HO-1; 18 h after Rx, control 0.61): 0.63 ± 0.06 | Kidney protein: HO-1 (HO-1; 18 h after Rx, control 13.3): 18 ± 2 | Kidney mRNA: Haptoglobin (haptoglobin [1]; 4 h after Rx, control 0.20): 0.19 ± 0.01 | Kidney protein: Haptoglobin (haptoglobin [1]; 4 h after Rx, control 7.9): 13.1 ± 1.3 | Kidney mRNA cortex: Haptoglobin (haptoglobin [1]; 18 h after Rx, control 0.20): 0.23 ± 0.08 | Kidney protein: Haptoglobin (haptoglobin [1]; 18 h after Rx, control 10.3): 53.5 ± 17.2 | Liver mRNA: Haptoglobin (haptoglobin [2]; 4 h after Rx): 0.32 ± 0.02 | Liver protein: Haptoglobin (haptoglobin [2]; 4 h after Rx): 130.0 ± 8.9 | Liver mRNA: Haptoglobin (haptoglobin [2]; 18 h after Rx): 0.65 ± 0.17 | Liver protein: Haptoglobin (haptoglobin [2]; 18 h after Rx): 212.0 ± 63.6 | Liver mRNA: IL-10 (IL-10; 4 h after Rx): 0.14 ± 0.1 | Liver protein: IL-10 (IL-10; 4 h after Rx): 485 ± 47 | Liver mRNA: IL-10 (IL-10; 18 h after Rx): 0.05 ± 0.01 | Liver protein: IL-10 (IL-10; 18 h after Rx): 8198 ± 725 | Cardiac mRNA: Haptoglobin (haptoglobin [3]; 4 h after Rx): 0.52 ± 0.21 | Cardiac protein: Haptoglobin (haptoglobin [3]; 4 h after Rx): 19.1 ± 2.1 | Cardiac mRNA: Haptoglobin (haptoglobin [3]; 18 h after Rx): 0.59 ± 0.17 | Cardiac protein: Haptoglobin (haptoglobin [3]; 18 h after Rx): 96.1 ± 36.2 | Severity of maleate-induced renal injury (BUN, PCr) (Male CD-1 mice): Neither SnPP alone nor FeS alone significantly altered | half-life [4]: 2 to 4 h | Reduction of Mgb toxicity by SnPP addition [5]: ≤ 85%
